According to patent publication US20150224164A1, “TREATMENT OF AUTISM SPECTRUM DISORDERS USING GLYCYL-L-2-METHYLPROLYL-L-GLUMATIC ACID” (Neuren Pharmaceuticals Limited, priority 2013, published 2015):
Where a SMILES comes first, the peptide text is derived from it.

Legend:
[1] = tested on: RTT iPSC-derived neurons; assay: In vitro human model of Rett Syndrome, iPSC-derived neurons (Example 14); type: cell-based; settings: 1 nM-10 μM for 1 week
Description: RTT fibroblasts (carrying 4 distinct MeCP2 mutations) and control fibroblasts are generated from explants of dermal biopsies. The shRNA against target MeCP2 gene is cloned into the LentiLox3.7 lentivirus vector (as described in Marchetto et al.). The fibroblasts are infected with retroviral reprogramming vectors (Sox2, Oct4, c-Myc and Klf4). Two days after infection, fibroblasts are plated on mitotically inactivated mouse embryonic fibroblasts with hESC medium. After 2 weeks, iPSC colonies that emerge from the background of fibroblasts are manually picked and transferred to feeder-free conditions on matrigel-coated dishes (BD) using embryonic stem cell culture media mTeSR™ (Stem Cell Technologies) and passaged manually. Gene expression profiles of the generated clones are measured using human genome Affymetrix Gene Chip™ arrays to confirm that reprogramming is successful. […]
Cells are fixed in 4% paraformaldehyde and permeabilized with 0.5% Triton-X100 in PBS. […] Fluorescent signals are detected using a Zeiss inverted microscope and images are processed with Photoshop CS3. The following primary antibodies are used: TRA-1-60, TRA-1-81 (1:100), Nanog and Lin28 (1:500), human Nestin (1:100), Tuj-1 (1:500), Map2 (1:100); meCP2 (1:1000; VGLUT1 (1:200), Psd95 (1:500), GFP (1:200), Sox1 (1:250), Mushasil (1:200) and me3H3K27 (1:500). Cell soma size is measured using suitable software (e.g. ImageJ) after identification of neurons using the Syn::EGFP™. The morphologies of neuronal dendrites and spines are studied from an individual projection of z-stacks optical sections and scanned at 0.5 um increments that correlate with the resolution valued at z-plane. Each optical section is the result of 3 scans at 500 lps followed by Kalman filtering. For synapse quantification, images are taken by a z-step of 1 um using Biorad radiance 2100™ confocal microscope. Synapse quantification is done blinded to genotype. Only VGLUT1 puncta along Map2-positive processes are counted. […]

[2] = tested on: layer 5 cortical neurons of MeCP2-/y mice; assay: Whole-cell recordings of spontaneous EPSCs in acute brain slices (Example 10); type: in vivo, mouse; settings: 20 mg/kg i.p. daily P15 to P28-P32; vs vehicle
Description: For the survival measurements, the nocturnal activity analysis and the immunoblot analysis, G-2-MePE (synthesised Albany Molecular Research Inc. (Albany, N.Y.) and supplied by Neuren Pharmaceuticals Limited) is administered daily via intra-peritoneal injections (20 mg/kg, vehicle=saline, 0.01% BSA). The treatment starts at P15 and is maintained throughout the course of the experiments. For intracellular physiology experiments, the mice are injected daily with G-2-MePE (20 mg/kg body weight, vehicle=saline, 0.01% BSA) for 2 weeks, from P15 to P28-P32 when they are used for acute slice preparation. For optical imaging experiments, mice are injected with G-2-MePE (20 mg/kg body weight, vehicle=saline, 0.01% BSA) daily from the day of the lid suture to the day of imaging. […]
Borosilicate pipettes (3-5 MΩ, WPI) are pulled using a Sutter P-80 puller (Sutter Instruments). Cells are visualized with an Achroplan 40× water-immersion lens with infrared-DIC optics (Zeiss) and detected with an infrared camera (Hamamatsu) projecting to a video monitor. […] Then in current clamp ˜10 pulses (500 ms, 40-140 pA at 10 pA increments), are applied to quantify evoked firing rates and cellular excitability. […] Analysis is performed using a custom software package written in Matlab, with all events detected according to automated thresholds and blindly verified for each event individually by the experimenter.

C[C@@]1(C(=O)N[C@@H](CCC(=O)O)C(=O)O)CCCN1C(=O)CN [Example G-2-MePE, Glycyl-L-2-methylprolyl-L-glutamic acid] (HELM PEPTIDE1{G.[C[C@@]1(C(=O)[*:2])CCCN1[*:1]].E}$$$$V2.0)
frequency and amplitude of spontaneous post-synaptic currents, frequency of calcium transients [1]: normalizes
glutamatergic synapse numbers [1]: significant increase
VGLUT1 puncta number ([1]; all concentrations): increase VGLUT1 puncta number
spontaneous EPSC amplitude [2]: significantly larger in amplitude
